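96-well plates; 48 h exposure; 5 concentrations. Endpoints by linear interpolation between flanking doses. Not reached: highest tested concentration assigned. Here, GI50 denotes the concentration required for 50% inhibition of growth. TGI marks complete inhibition of growth.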 Bounds are passed on as bounds.

Some test systems named below: MALME-3M melanoma; M14 melanoma; HS 578T breast; UO-31 renal; NCI-H460 lung; HCC-2998 colon; K-562 leukemia; PC-3 prostate; SW-620 colon; EKVX NSCLC.
Common to all, as to assay: DTP human tumour cell line panel, 48 h

The term TGI denotes the concentration giving total growth inhibition. A high value points to less potent growth arrest. Regarding `CC1(C)O[C@@H]2C[C@H]3[C@@H]4C[C@H](F)C5=CC(=O)C=C[C@]5(C)[C@@]4(F)[C@@H](O)C[C@]3(C)[C@]2(C(=O)CO)O1`, the TGI in the assay with MALME-3M melanoma, with M14 melanoma, in the assay with HS 578T breast, with UO-31 renal, in the assay with NCI-H460 lung and in the assay on HCC-2998 colon was over 100 µM throughout. For the same molecule, the concentration for total growth inhibition (TGI) with K-562 leukemia, in the assay with PC-3 prostate, in the assay with SW-620 colon and in the assay with EKVX NSCLC was over 100 µM throughout.
In general, GI50 refers to the concentration giving 50% growth inhibition. Turning to `CN(C)c1ccc(/C=N/S(=O)(=O)c2ccc(-n3c(-c4ccccc4)nc4c(Br)cc(Br)cc4c3=O)cc2)cc1`, the GI50 in the assay with MALME-3M melanoma was 47.2 µM; in the assay on M14 melanoma, 31.1 µM; with HS 578T breast, 32.6 µM; in the assay on UO-31 renal, 32.6 µM; in the assay on NCI-H460 lung, 28.5 µM; with HCC-2998 colon it was 51.2 µM. For the same molecule, the GI50 in the assay with K-562 leukemia is 31.3 µM; in the assay with PC-3 prostate, 35.3 µM; in the assay with SW-620 colon it was 46.2 µM; with EKVX NSCLC it was 27.6 µM. For the same molecule, the TGI is over 89.7 µM in the assay with MALME-3M melanoma; over 93.5 µM in the assay with M14 melanoma; over 92.1 µM in the assay on HS 578T breast; over 100 µM in the assay with UO-31 renal; over 100 µM in the assay on NCI-H460 lung; over 100 µM in the assay with HCC-2998 colon. Further, the TGI is over 86.5 µM with K-562 leukemia, over 88 µM in the assay with PC-3 prostate, over 100 µM with SW-620 colon and 91.6 µM with EKVX NSCLC.
Consider `Cc1ccc(C2NC(=O)c3ccccc3N2)c(C)c1` (stereo not given), for which the TGI in the assay on MALME-3M melanoma was over 69.1 µM; in the assay on M14 melanoma, 40 µM; in the assay with HS 578T breast, 6.78 µM; in the assay with UO-31 renal, over 100 µM; in the assay with NCI-H460 lung, over 100 µM; in the assay with HCC-2998 colon it was over 61.1 µM. Besides, the TGI was 8.37 µM in the assay on K-562 leukemia, over 40.2 µM in the assay with PC-3 prostate, over 100 µM in the assay on SW-620 colon and over 100 µM with EKVX NSCLC.
For the molecule `COC1CC(N)C(O)C(C)O1` (stereo not given), the concentration for total growth inhibition (TGI) with MALME-3M melanoma, with M14 melanoma, with HS 578T breast, with UO-31 renal, with NCI-H460 lung and in the assay on HCC-2998 colon was over 100 µM throughout. The TGI in the assay with K-562 leukemia, in the assay on PC-3 prostate, in the assay on SW-620 colon and with EKVX NSCLC was over 100 µM each time.
For `CC1=Nc2c([nH]c(=S)[nH]c2=O)NC(c2c(Cl)cccc2Cl)C1` (stereo not given), the total growth inhibition concentration (TGI) stood at 12.9 µM in the assay on MALME-3M melanoma; 6.47 µM with M14 melanoma; 17.1 µM in the assay on HS 578T breast; 10.2 µM with UO-31 renal; 5.64 µM with NCI-H460 lung; 22.9 µM in the assay on HCC-2998 colon. Also, the concentration for total growth inhibition (TGI) in the assay with K-562 leukemia was found to be 2.21 µM; in the assay on PC-3 prostate, 2.6 µM; with SW-620 colon it was 2.05 µM; with EKVX NSCLC, 18.7 µM.
For `CC1OC(CC(=O)O)CC2=C1C(=O)c1c(O)cccc1C2=O` (stereo not given), the TGI in the assay on MALME-3M melanoma was determined as 0.495 µM; in the assay on M14 melanoma, 0.389 µM; in the assay with HS 578T breast it was 0.452 µM; with UO-31 renal it was 1.07 µM; in the assay on NCI-H460 lung it was 3.58 µM; in the assay on HCC-2998 colon, 1.69 µM. The TGI in the assay with K-562 leukemia was 0.36 µM; in the assay on PC-3 prostate, 0.817 µM; with SW-620 colon it was 0.207 µM; in the assay with EKVX NSCLC, 2.02 µM.
As for `CC1SC2(CCCCC2)N(NC(=O)c2[nH]c3ccc(Br)cc3c2-c2ccccc2)C1=O` (stereo not given), the GI50 with MALME-3M melanoma was 17.2 µM; with M14 melanoma, 64 µM; with HS 578T breast, 70.7 µM; with UO-31 renal, 21.6 µM; in the assay with NCI-H460 lung it was 48.2 µM; with HCC-2998 colon, over 100 µM. Further, the GI50 in the assay on K-562 leukemia is 6.78 µM; in the assay with PC-3 prostate, 7.45 µM; in the assay on SW-620 colon it was over 100 µM; in the assay on EKVX NSCLC, over 100 µM. Further, the total growth inhibition concentration (TGI) was 59.3 µM in the assay on MALME-3M melanoma; over 100 µM with M14 melanoma; over 100 µM with HS 578T breast; over 100 µM in the assay with UO-31 renal; over 100 µM in the assay on NCI-H460 lung; over 100 µM in the assay with HCC-2998 colon. In addition, the total growth inhibition concentration (TGI) in the assay with K-562 leukemia was over 100 µM; in the assay on PC-3 prostate, 89.2 µM; with SW-620 colon it was over 100 µM; in the assay with EKVX NSCLC, over 100 µM.
On to `CC1(C)Cc2c(Br)c(Br)c(Br)c(OCC(O)CN3CCN(c4ccccn4)CC3)c2O1` (stereo not given), for which the GI50 in the assay with MALME-3M melanoma is 17 µM; in the assay on M14 melanoma it was 13.3 µM; in the assay with HS 578T breast, 18.6 µM; in the assay with UO-31 renal, 11 µM; with NCI-H460 lung, 9.43 µM; in the assay with HCC-2998 colon it was 3.68 µM. Moreover, the GI50 is 4.1 µM with K-562 leukemia, 5.58 µM with PC-3 prostate, 15.2 µM in the assay with SW-620 colon and 11.3 µM in the assay on EKVX NSCLC. Further, the TGI is 36.9 µM with MALME-3M melanoma; 29.7 µM in the assay on M14 melanoma; 39.2 µM in the assay with HS 578T breast; 24 µM with UO-31 renal; 22.9 µM in the assay on NCI-H460 lung; 13.7 µM with HCC-2998 colon. Further, the concentration for total growth inhibition (TGI) in the assay with K-562 leukemia came to 20.3 µM; with PC-3 prostate, 22.5 µM; in the assay on SW-620 colon, 29.2 µM; with EKVX NSCLC, 43.2 µM.
Take `CCSC[C@@H]1C[C@](O)(c2ccc(F)cc2)[C@@H](c2ccc(F)cc2)O1`: the GI50 was 19.9 µM in the assay with MALME-3M melanoma; 15.8 µM with M14 melanoma; 18 µM in the assay on HS 578T breast; 17 µM with UO-31 renal; 14.8 µM in the assay with NCI-H460 lung; 18.8 µM in the assay with HCC-2998 colon. Moreover, the GI50 in the assay on K-562 leukemia is 16 µM; in the assay on PC-3 prostate it was 15.8 µM; with SW-620 colon, 16.7 µM; in the assay on EKVX NSCLC it was 15.3 µM. In addition, the total growth inhibition concentration (TGI) is 37.3 µM with MALME-3M melanoma; 32.4 µM with M14 melanoma; 37 µM in the assay with HS 578T breast; 32.9 µM in the assay on UO-31 renal; 30.2 µM with NCI-H460 lung; 36.6 µM with HCC-2998 colon. The concentration for total growth inhibition (TGI) with K-562 leukemia came to 31.5 µM; with PC-3 prostate, 30 µM; in the assay on SW-620 colon, 31.4 µM; in the assay with EKVX NSCLC it was 31.7 µM.
Take `CC(=O)Nc1n[n+]([O-])c2cc(C)ccc2[n+]1[O-]`: the TGI in the assay on MALME-3M melanoma was determined as 18.5 µM; in the assay on M14 melanoma, 8.3 µM; with HS 578T breast it was 40.7 µM; in the assay with UO-31 renal, 17.2 µM; with NCI-H460 lung, 2.14 µM; in the assay with HCC-2998 colon, 71 µM. The total growth inhibition concentration (TGI) in the assay on K-562 leukemia is over 49.3 µM; with PC-3 prostate, 14.8 µM; in the assay on SW-620 colon, 17.5 µM; in the assay on EKVX NSCLC, 16.8 µM.
Turning to `CN(C)c1cccc(F)c1C(=O)NC(=O)Nc1ccc(Cl)cc1`, the total growth inhibition concentration (TGI) with MALME-3M melanoma was over 100 µM; in the assay with M14 melanoma it was over 100 µM; with HS 578T breast, over 22.3 µM; in the assay on UO-31 renal, over 100 µM; in the assay with NCI-H460 lung, over 100 µM; with HCC-2998 colon, 28.3 µM. Besides, the TGI was over 34.4 µM in the assay with K-562 leukemia, over 100 µM in the assay with PC-3 prostate, over 100 µM in the assay on SW-620 colon and over 100 µM in the assay on EKVX NSCLC.
On to `COc1cnc2c(c1)C(=O)c1c-2n(CCCN2CCC(O)CC2)c(=O)c2cc(Cl)ccc12`, for which the GI50 with MALME-3M melanoma is 14.1 µM; in the assay with M14 melanoma, 0.0914 µM; in the assay with HS 578T breast it was 14.1 µM; in the assay with UO-31 renal it was 0.271 µM; in the assay on NCI-H460 lung, 0.0371 µM; in the assay with HCC-2998 colon, 1.59 µM. Also, the GI50 with K-562 leukemia is 1.43 µM; in the assay with PC-3 prostate it was 1.46 µM; in the assay on SW-620 colon, 0.253 µM; in the assay with EKVX NSCLC, 1.84 µM. The TGI is 27.9 µM with MALME-3M melanoma; 1.86 µM with M14 melanoma; 37.5 µM with HS 578T breast; 1.59 µM with UO-31 renal; 1.27 µM in the assay on NCI-H460 lung; 11.1 µM in the assay with HCC-2998 colon. Besides, the TGI in the assay on K-562 leukemia came to 6.34 µM; in the assay on PC-3 prostate, 3.56 µM; in the assay with SW-620 colon, 2.62 µM; with EKVX NSCLC, 5.85 µM.
With `NC1(Cc2ccc(Cl)cc2)CCN(c2ncnc3[nH]ccc23)CC1`, the GI50 is 6.3 µM in the assay with MALME-3M melanoma; 8.58 µM in the assay on M14 melanoma; 2.17 µM with HS 578T breast; 1.54 µM in the assay on UO-31 renal; 2.31 µM with NCI-H460 lung; 3.89 µM in the assay on HCC-2998 colon. The GI50 with K-562 leukemia is 4.66 µM; with PC-3 prostate it was 2.99 µM; in the assay with SW-620 colon, 4.59 µM; in the assay on EKVX NSCLC, 2.69 µM. Moreover, the total growth inhibition concentration (TGI) in the assay with MALME-3M melanoma is 21.6 µM; with M14 melanoma, 23.6 µM; with HS 578T breast it was 14.6 µM; in the assay with UO-31 renal, 13 µM; in the assay with NCI-H460 lung, 13.3 µM; with HCC-2998 colon, 17 µM. The TGI was determined as 19.4 µM in the assay on K-562 leukemia, 23.5 µM in the assay with PC-3 prostate, 20.4 µM in the assay with SW-620 colon and 18.5 µM in the assay on EKVX NSCLC.
On to `Cc1[nH]c2cc(F)ccc2c1-c1nc2c3cccnc3c3ncccc3c2[nH]1`, for which the concentration for 50% growth inhibition (GI50) in the assay on MALME-3M melanoma was 0.202 µM; in the assay with M14 melanoma, 0.187 µM; in the assay on HS 578T breast, 1.09 µM; in the assay on UO-31 renal, 0.266 µM; in the assay with NCI-H460 lung, 0.322 µM; in the assay with HCC-2998 colon, 0.117 µM. For the same molecule, the GI50 with K-562 leukemia was 0.324 µM; in the assay on PC-3 prostate, 0.183 µM; in the assay on SW-620 colon, 0.282 µM; in the assay with EKVX NSCLC, 0.32 µM. Further, the TGI with MALME-3M melanoma turned out to be 0.769 µM; in the assay on M14 melanoma, 0.667 µM; with HS 578T breast, 4.74 µM; in the assay with UO-31 renal it was 0.929 µM; in the assay on NCI-H460 lung it was 1.03 µM; with HCC-2998 colon, 1.3 µM. Besides, the TGI with K-562 leukemia is 4.77 µM; in the assay with PC-3 prostate, 2.93 µM; with SW-620 colon, 1.84 µM; in the assay on EKVX NSCLC, 2.69 µM.

Source of the values: PubChem BioAssay (NCI).
